These results are taken from US10982196B2, “Immunotherapy targeting intracellular pathogens” (LIFE SCIENCES RESEARCH PARTNERS VZW, priority 2008, dated 2021).

Experiment [1] has as its system IDO (indolamine-2,3-dioxygenase). The experiment is classed as cell-based, BALB/c. Conditions: dendritic cells pre-loaded with SEQ ID NO:5 or 7, 8 h co-culture with CD4+ T cells of mice immunised with SEQ ID NO:6 or 8; example written in present tense.
The subject of experiment [2] is dendritic cells. Description: Reactive oxygen intermediates in antigen-presenting cells co-cultured with CD4+ T cells expanded with modified ESAT-6 epitope, Facs (DCFDA). The format is cell-based, C57Bl/6 mice. Conditions: dendritic cells loaded with SEQ ID NO:3, 2 h co-culture with CD4+ T cells expanded with SEQ ID NO:4; example written in present tense.
For experiment [3], the system named is induced nitric oxide synthase. As to the kind of experiment: Reactive nitrogen intermediates in antigen-presenting cells, RT-PCR for transcripts of nitric oxide synthase. The format is cell-based, C57Bl/6 mice. Conditions: dendritic cells co-cultured 6 h with CD4+ T cells and peptide of SEQ ID NO:4; example written in present tense.
Experiment [4] relates to dendritic cells. Conditions: dendritic cells loaded with peptide of SEQ ID NO:1, 2 h co-culture with CD4+ T cell line expanded with the peptide; compared with line expanded with SEQ ID NO:1; FIG. 1.
Protocol: Adenovirus of serotype 5 (Ad.RR5, E1/E3-deleted) was used in these experiments. Thus, 5 μL of a solution containing 2×10^11 viral particles/ml was administered by the intravenous route to 6 weeks old C57Bl/6 mice. Ten days later, the spleen of such mice was recovered and CD4+ T cells purified by magnetic sorting.
CD4+ T cells obtained from Ad.RR5-immunized mice were cultured in the presence of T lymphocyte-depleted spleen adherent cells used as antigen-presenting cells pre-incubated with either peptide of SEQ ID NO:1 or peptide of SEQ ID NO:2. After two cycles of restimulation, the CD4+ T cell lines were allowed to rest for 10 days. […] The generation of reactive oxygen intermediates (ROI) by dendritic cells was then evaluated after 2 h of co-culture. Dendritic cells were prepared from the spleen of C57Bl/6 mice by sorting on magnetic beads coated with an anti-CD11c specific antibody.
Thus, 10^5 dendritic cells were incubated for 1 h with 10 μM DCFDA, a derivative of fluorescein used as an indicator of ROI generation. […] Fluorescence increases generated by DCFDA oxidation by reactive oxygen intermediates are read in a Facs gated on CD11c(+) cells.

As to “CGHCDKHIEQYLK (modified Th2R T-cell epitope; (1)..(4) thioreductase motif) [SEQ ID NO:6]”, the “expression of IDO in dendritic cells” value in experiment [1] is “induces a reverse signalling leading to expression of IDO”.
The same measure, in the same setting: as for “CGHCEKKICKMEK (modified T-cell epitope of CSP antigen Plasmodium falciparum; (1)..(4) modified T-cell epitope) [SEQ ID NO:8]”, the entry is “induces a reverse signalling leading to expression of IDO”.
As to “CGHCFAGIEAAAS (modified ESAT6 T-cell epitope; (1)..(4) thioreductase motif) [SEQ ID NO:4]”, the “production of reactive oxygen intermediates in antigen-presenting cells” value in the experiment with dendritic cells [2] was “shown to be induced”. The “production of reactive nitrogen intermediates in antigen-presenting cells” value in experiment [3] is recorded as “shown to be induced”.
For the sequence “CHGCPTLLYVLFEV (modified T-cell epitope of capsid protein adenovirus serotype 5; (1)..(4) thioreductase motif) [SEQ ID NO:2]”, the “ROI produced by dendritic cells” value in the experiment with dendritic cells [4] was “significantly more ROI”.
